Measured values published in US12297194B2, “N2-phenylpyrimidine-2,4-diamine compounds, and preparation methods and methods of use thereof” (BRIDGE BIOTHERAPEUTICS, INC., priority 2021, dated 2025).

Legend:
Assay type in all cases: cell-based, murine
[1] = molecular target: Ba/F3 EGFR L858R/C797S mutants (Homo sapiens, UniProt P00533, C797S/L858R, cells depend on it); assay: CellTiter-Glo cell viability, Ba/F3 EGFR L858R/C797S cells; conditions: 72 hours, read-out: Ba/F3 EGFR mutant cell (IC50, nM) L/C
Procedure, shortened: (§1)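 EGFR-driven Ba/F3 cells, 2500 per well, exposed 72 h at 37° C to compound (top 2000 nM, ~3-fold steps). Readout: cellular ATP, luminescence; IC50 calculated.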

[2] = molecular target: Ba/F3 EGFR Del19/T790M mutants (Homo sapiens, UniProt P00533, T790M, cells depend on it, form not given); assay: CellTiter-Glo cell viability, Ba/F3 EGFR Del19/T790M cells; conditions: 72 hours, read-out: Ba/F3 EGFR mutant cell (IC50, nM) D/T
Procedure, shortened: as §1

Ba/F3 EGFR Wild-type = Ba/F3 EGFR Wild-type (Homo sapiens, UniProt P00533); assay: CellTiter-Glo cell viability, Ba/F3 EGFR wild-type cells; conditions: 72 hours, read-out: Ba/F3 EGFR mutant cell (IC50, nM) WT
Procedure, shortened: as §1

[3] = molecular target: Ba/F3 EGFR Del19/C797S mutants (Homo sapiens, UniProt P00533, C797S, cells depend on it, form not given); assay: CellTiter-Glo cell viability, Ba/F3 EGFR Del19/C797S cells; conditions: 72 hours, read-out: Ba/F3 EGFR mutant cell (IC50, nM) D/C
Procedure, shortened: as §1

[4] = molecular target: Ba/F3 EGFR Del19/T790M/C797S mutants (Homo sapiens, UniProt P00533, T790M/C797S, cells depend on it, form not given); assay: CellTiter-Glo cell viability, Ba/F3 EGFR Del19/T790M/C797S cells; conditions: 72 hours, read-out: Ba/F3 EGFR mutant cell (IC50, nM) D/T/C
Procedure, shortened: as §1

[5] = molecular target: Ba/F3 EGFR L858R/T790M/C797S mutants (Homo sapiens, UniProt P00533, T790M/C797S/L858R, cells depend on it); assay: CellTiter-Glo cell viability, Ba/F3 EGFR L858R/T790M/C797S cells; conditions: 72 hours, read-out: Ba/F3 EGFR mutant cell (IC50, nM) L/T/C
Procedure, shortened: as §1

Ba/F3 EGFR Del19/T790M mutants, sequence (P00533 with tags, fused parts or gaps DEL746-750/T790M, form open): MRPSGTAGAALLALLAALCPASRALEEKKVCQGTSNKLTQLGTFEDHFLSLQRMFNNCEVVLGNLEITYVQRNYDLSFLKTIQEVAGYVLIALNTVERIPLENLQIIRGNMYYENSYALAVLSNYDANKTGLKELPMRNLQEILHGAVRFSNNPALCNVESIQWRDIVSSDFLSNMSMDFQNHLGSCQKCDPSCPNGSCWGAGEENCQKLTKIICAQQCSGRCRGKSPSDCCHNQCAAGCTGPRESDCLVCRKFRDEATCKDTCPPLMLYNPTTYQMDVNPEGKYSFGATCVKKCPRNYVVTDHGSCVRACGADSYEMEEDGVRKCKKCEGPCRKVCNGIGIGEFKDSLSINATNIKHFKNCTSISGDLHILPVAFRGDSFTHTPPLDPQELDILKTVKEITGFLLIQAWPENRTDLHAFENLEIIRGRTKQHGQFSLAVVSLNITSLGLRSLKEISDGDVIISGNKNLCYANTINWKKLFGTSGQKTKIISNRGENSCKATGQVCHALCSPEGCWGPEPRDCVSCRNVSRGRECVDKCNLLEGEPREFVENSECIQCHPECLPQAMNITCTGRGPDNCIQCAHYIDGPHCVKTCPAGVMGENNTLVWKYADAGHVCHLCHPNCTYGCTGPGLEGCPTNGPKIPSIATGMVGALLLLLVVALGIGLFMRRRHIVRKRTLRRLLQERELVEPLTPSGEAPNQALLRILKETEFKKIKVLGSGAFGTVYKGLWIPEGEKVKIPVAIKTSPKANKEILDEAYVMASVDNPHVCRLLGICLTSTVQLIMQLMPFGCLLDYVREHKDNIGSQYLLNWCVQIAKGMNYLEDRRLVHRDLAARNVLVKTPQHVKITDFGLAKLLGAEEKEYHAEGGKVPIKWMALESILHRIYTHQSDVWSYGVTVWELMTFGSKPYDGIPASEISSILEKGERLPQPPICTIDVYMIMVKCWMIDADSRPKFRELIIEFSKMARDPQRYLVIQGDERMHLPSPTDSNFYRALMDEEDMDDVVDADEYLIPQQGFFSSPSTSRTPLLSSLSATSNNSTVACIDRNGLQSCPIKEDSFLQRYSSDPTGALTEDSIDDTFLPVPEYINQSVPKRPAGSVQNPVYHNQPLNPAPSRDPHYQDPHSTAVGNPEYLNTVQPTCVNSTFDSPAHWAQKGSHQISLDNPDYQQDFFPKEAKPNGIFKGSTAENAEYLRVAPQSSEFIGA
Ba/F3 EGFR Wild-type, sequence (P00533 whole entry, change not shown): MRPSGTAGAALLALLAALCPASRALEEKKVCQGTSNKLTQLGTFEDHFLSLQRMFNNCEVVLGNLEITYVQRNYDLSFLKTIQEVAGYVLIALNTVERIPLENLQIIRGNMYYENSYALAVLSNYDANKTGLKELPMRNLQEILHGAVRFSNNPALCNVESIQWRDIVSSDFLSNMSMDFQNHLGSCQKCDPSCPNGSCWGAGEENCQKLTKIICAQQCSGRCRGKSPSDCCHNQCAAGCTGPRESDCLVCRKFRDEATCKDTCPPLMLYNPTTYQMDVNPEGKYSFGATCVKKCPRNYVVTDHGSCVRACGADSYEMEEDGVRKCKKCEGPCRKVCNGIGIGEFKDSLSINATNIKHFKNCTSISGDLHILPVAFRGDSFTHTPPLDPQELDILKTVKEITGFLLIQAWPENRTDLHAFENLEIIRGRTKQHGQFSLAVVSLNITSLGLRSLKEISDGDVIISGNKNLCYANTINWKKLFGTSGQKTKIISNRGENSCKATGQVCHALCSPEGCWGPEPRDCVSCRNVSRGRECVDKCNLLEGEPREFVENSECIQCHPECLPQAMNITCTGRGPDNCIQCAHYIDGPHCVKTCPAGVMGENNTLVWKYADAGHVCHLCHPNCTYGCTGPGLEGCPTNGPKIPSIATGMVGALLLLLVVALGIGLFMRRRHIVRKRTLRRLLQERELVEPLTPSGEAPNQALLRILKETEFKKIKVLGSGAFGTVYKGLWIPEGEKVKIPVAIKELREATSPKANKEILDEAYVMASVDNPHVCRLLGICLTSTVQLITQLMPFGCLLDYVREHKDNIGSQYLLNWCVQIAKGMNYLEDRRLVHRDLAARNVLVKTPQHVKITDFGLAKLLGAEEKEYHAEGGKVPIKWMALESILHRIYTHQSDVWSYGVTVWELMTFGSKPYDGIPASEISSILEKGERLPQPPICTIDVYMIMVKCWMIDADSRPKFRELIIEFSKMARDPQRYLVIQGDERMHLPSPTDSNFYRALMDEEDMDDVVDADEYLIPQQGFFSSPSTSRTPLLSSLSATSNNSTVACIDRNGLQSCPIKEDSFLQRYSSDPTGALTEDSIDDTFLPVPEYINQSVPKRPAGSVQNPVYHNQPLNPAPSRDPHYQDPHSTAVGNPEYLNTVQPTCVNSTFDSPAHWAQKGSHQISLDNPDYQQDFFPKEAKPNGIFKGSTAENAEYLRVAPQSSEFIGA
Ba/F3 EGFR L858R/C797S mutants, sequence (P00533 whole entry C797S/L858R): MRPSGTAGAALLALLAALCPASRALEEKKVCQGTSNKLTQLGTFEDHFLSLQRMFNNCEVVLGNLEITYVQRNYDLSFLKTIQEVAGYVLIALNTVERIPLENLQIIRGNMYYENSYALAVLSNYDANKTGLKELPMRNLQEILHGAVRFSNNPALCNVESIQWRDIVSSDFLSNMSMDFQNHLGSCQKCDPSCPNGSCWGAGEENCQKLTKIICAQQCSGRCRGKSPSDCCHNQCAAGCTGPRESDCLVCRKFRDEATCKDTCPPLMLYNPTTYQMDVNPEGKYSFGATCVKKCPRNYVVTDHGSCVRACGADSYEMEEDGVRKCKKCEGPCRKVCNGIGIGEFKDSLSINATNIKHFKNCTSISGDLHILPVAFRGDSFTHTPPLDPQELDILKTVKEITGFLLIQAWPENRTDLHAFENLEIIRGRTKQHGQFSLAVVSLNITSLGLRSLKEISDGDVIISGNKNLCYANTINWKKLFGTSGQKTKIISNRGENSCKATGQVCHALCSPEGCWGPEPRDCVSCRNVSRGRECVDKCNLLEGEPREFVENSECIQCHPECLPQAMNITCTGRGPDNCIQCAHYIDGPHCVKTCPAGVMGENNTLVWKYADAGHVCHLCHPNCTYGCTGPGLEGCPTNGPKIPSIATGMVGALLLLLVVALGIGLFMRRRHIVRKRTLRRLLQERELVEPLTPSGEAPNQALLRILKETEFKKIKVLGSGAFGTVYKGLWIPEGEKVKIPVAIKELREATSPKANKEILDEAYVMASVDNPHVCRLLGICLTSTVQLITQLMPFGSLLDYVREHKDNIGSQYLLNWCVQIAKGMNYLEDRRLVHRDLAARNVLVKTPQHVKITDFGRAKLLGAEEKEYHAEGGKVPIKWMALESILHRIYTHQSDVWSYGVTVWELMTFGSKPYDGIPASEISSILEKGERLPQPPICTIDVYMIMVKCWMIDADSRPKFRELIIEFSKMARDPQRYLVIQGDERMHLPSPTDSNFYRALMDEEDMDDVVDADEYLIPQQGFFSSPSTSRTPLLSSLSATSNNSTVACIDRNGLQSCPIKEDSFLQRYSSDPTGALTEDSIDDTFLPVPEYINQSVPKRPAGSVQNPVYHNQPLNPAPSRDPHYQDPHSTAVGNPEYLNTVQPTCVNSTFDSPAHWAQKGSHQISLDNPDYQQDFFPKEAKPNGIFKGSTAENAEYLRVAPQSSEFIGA
Ba/F3 EGFR L858R/T790M/C797S mutants, sequence (P00533 whole entry T790M/C797S/L858R): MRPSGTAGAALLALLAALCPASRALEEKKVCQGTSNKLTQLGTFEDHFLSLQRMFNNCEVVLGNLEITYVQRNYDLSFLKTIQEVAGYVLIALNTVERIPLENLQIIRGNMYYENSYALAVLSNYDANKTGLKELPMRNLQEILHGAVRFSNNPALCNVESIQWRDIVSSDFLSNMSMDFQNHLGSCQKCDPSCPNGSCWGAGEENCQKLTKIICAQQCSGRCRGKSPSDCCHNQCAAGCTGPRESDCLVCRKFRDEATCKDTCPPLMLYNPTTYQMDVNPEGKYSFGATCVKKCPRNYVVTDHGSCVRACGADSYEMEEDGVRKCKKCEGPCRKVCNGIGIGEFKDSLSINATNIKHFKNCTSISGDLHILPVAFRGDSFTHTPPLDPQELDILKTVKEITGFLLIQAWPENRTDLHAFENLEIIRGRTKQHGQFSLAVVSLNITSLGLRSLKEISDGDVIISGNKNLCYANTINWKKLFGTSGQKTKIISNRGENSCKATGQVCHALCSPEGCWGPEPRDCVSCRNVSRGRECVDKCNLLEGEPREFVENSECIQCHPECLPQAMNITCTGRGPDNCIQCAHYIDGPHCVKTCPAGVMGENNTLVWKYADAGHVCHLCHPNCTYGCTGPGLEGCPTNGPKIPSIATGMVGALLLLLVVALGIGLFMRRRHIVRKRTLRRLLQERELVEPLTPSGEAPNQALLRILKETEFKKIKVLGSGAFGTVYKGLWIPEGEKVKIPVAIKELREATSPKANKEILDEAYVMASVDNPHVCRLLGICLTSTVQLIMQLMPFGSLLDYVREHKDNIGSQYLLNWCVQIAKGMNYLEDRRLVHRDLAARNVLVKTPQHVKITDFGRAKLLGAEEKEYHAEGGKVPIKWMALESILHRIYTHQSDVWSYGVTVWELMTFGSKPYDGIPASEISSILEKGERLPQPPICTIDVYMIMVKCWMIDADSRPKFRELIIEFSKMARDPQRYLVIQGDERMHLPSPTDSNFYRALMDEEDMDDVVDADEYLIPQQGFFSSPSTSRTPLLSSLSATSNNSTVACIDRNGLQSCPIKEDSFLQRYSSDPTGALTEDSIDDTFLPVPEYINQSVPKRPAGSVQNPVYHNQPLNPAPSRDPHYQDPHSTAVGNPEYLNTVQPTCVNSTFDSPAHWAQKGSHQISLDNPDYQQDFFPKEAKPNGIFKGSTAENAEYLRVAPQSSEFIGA

Row | SMILES | GI50 [1] [nM] | GI50 [2] [nM] | GI50 (Ba/F3 EGFR Wild-type) [nM] | GI50 [3] [nM] | GI50 [4] [nM] | GI50 [5] [nM]
1 | COc1cc(C2CCN(C(C)=O)CC2)ccc1Nc1ncc(Cl)c(Nc2ccc3nccnc3c2NS(C)(=O)=O)n1 [Example B8, N-(6-((2-((4-(1-acetylpiperidin-4-yl)-2-methoxyphenyl)amino)-5-chloropyrimidin-4-yl)amino)quinoxalin-5-yl)methanesulfonamide] | 554 | 424 | 729 | 320 | 292 | 861
2 | COc1cc(C2CCNCC2)c(C)cc1Nc1ncc(Br)c(Nc2ccc3nccnc3c2NS(C)(=O)=O)n1 [Example B11, N-(6-((5-bromo-2-((2-methoxy-5-methyl-4-(piperidin-4-yl)phenyl)amino)pyrimidin-4-yl)amino)quinoxalin-5-yl)methanesulfonamide] | 781 | 443 | 1270 | 583 | 725 | 264
3 | CCCc1cc(Nc2ncc(Cl)c(Nc3ccc4nccnc4c3NS(C)(=O)=O)n2)c(OC)cc1N1CCC(N(C)C)CC1 [Example B12, N-(6-((5-chloro-2-((4-(4-(dimethylamino)piperidin-1-yl)-2-methoxy-5-propylphenyl)amino)pyrimidin-4-yl)amino)quinoxalin-5-yl)methanesulfonamide] | 87 | 19 | 431 | 29 | 104 | 36
4 | CCCc1cc(Nc2ncc(Br)c(Nc3ccc4nccnc4c3NS(C)(=O)=O)n2)c(OC)cc1N1CCC(N(C)C)CC1 [Example B13, N-(6-((5-bromo-2-((4-(4-(dimethylamino)piperidin-1-yl)-2-methoxy-5-propylphenyl)amino)pyrimidin-4-yl)amino)quinoxalin-5-yl)methanesulfonamide] | 114 | 13 | 468 | 41 | 60 | 22
5 | CCc1cc(Nc2ncc(Br)c(Nc3ccc4nccnc4c3N(C)S(C)(=O)=O)n2)c(OC)cc1N1CCC(N(C)C)CC1 [Example B14, N-(6-((5-bromo-2-((4-(4-(dimethylamino)piperidin-1-yl)-5-ethyl-2-methoxyphenyl)amino)pyrimidin-4-yl)amino)quinoxalin-5-yl)-N-methylmethanesulfonamide] | 41 | 3 | 427 | 6 | 8 | 23
6 | COc1cc(C2CCNCC2)ccc1Nc1ncc(Cl)c(Nc2ccc3nccnc3c2NS(C)(=O)=O)n1 [Example B15, N-(6-((5-chloro-2-((2-methoxy-4-(piperidin-4-yl)phenyl)amino)pyrimidin-4-yl)amino)quinoxalin-5-yl)methanesulfonamide] | 1540 | 1310 | > 2000 | 581 | 746 | 2140
7 | COc1cc(N2CCNCC2)ccc1Nc1ncc(Cl)c(Nc2ccc3nccnc3c2NS(C)(=O)=O)n1 [Example B16, N-(6-((5-chloro-2-((2-methoxy-4-(piperazin-1-yl)phenyl)amino)pyrimidin-4-yl)amino)quinoxalin-5-yl)methanesulfonamide] | 778 | 402 | 1890 | 361 | 741 | 823
8 | COc1cc(C2CCNCC2)ccc1Nc1ncc(Br)c(Nc2ccc3nccnc3c2NS(C)(=O)=O)n1 [Example B18, N-(6-((5-bromo-2-((2-methoxy-4-(piperidin-4-yl)phenyl)amino)pyrimidin-4-yl)amino)quinoxalin-5-yl)methanesulfonamide] | 1020 | 598 | > 2000 | 725 | 818 | 1440
9 | CCc1cc(Nc2ncc(Br)c(N(C)c3ccc4nccnc4c3N(C)S(C)(=O)=O)n2)c(OC)cc1N1CCC(N(C)C)CC1 [Example B19, N-(6-((5-bromo-2-((4-(4-(dimethylamino)piperidin-1-yl)-5-ethyl-2-methoxyphenyl)amino)pyrimidin-4-yl)(methyl)amino)quinoxalin-5-yl)-N-methylmethane sulfonamide] | 182 | 20 | 1410 | 36 | 25 | 82
10 | COc1cc(C2CCNCC2)ccc1Nc1ncc(C2CC2)c(Nc2ccc3nccnc3c2NS(C)(=O)=O)n1 [Example B20, N-(6-((5-cyclopropyl-2-((2-methoxy-4-(piperidin-4-yl)phenyl)amino)pyrimidin-4-yl)amino)quinoxalin-5-yl)methanesulfonamide] | 1140 | 1810 | > 2000 | 697 | 758 | 1850
11 | COc1cc(C2CCNCC2)c(F)cc1Nc1ncc(Cl)c(Nc2ccc3nccnc3c2NS(C)(=O)=O)n1 [Example B21, N-(6-((5-chloro-2-((5-fluoro-2-methoxy-4-(piperidin-4-yl)phenyl)amino)pyrimidin-4-yl)amino)quinoxalin-5-yl)methanesulfonamide] | 500 | 469 | 1730 | 342 | 448 | 693
12 | COc1cc(C2CCN(C)CC2)ccc1Nc1ncc(Cl)c(Nc2ccc3nccnc3c2NS(C)(=O)=O)n1 [Example B23, N-(6-((5-chloro-2-((2-methoxy-4-(1-methylpiperidin-4-yl)phenyl)amino)pyrimidin-4-yl)amino)quinoxalin-5-yl)methanesulfonamide] | 302 | 154 | 868 | 100 | 112 | 354
13 | CCCc1cc(Nc2ncc(Br)c(Nc3ccc4nccnc4c3N(C)S(C)(=O)=O)n2)c(OC)cc1N1CCC(N(C)C)CC1 [Example B24, N-(6-((5-bromo-2-((4-(4-(dimethylamino)piperidin-1-yl)-2-methoxy-5-propylphenyl)amino)pyrimidin-4-yl)amino)quinoxalin-5-yl)-N-methylmethanesulfonamide] | 185 | 23 | 908 | 17 | 20 | 65
14 | CCc1cc(Nc2ncc(Cl)c(Nc3ccc4nccnc4c3NS(C)(=O)=O)n2)c(OC)cc1N1CC2CCC1CN2C(C)C (stereo not drawn) [Example B25, N-(6-((5-chloro-2-((5-ethyl-4-(5-isopropyl-2,5-diazabicyclo[2.2.2]octan-2-yl)-2-methoxyphenyl)amino)pyrimidin-4-yl)amino) 105 quinoxaline-5-yl)methanesulfonamide] | 93 | 26 | 829 | 16 | 22 | 83
15 | CCc1cc(Nc2ncc(Cl)c(Nc3ccc4nccnc4c3NS(C)(=O)=O)n2)c(OC)cc1N1CC2(C1)CN(C(C)C)C2 [Example B26, N-(6-((5-chloro-2-((5-ethyl-4-(6-isopropyl-2,6-diazaspiro[3.3]heptan-2-yl)-2-methoxyphenyl)amino)pyrimidin-4-yl)amino)quinoxalin-5-yl)methanesulfonamide] | 59 | 38 | 528 | 42 | 9 | 61
16 | CCc1cc(Nc2ncc(Cl)c(Nc3ccc4nccnc4c3N(C)S(C)(=O)=O)n2)c(OC)cc1N1CC2(C1)CN(C(C)C)C2 [Example B27, N-(6-((5-chloro-2-((5-ethyl-4-(6-isopropyl-2,6-diazaspiro[3.3]heptan-2-yl)-2-methoxyphenyl)amino)pyrimidin-4-yl)amino)quinoxalin-5-yl)-N-methylmethanesulfonamide] | 35 | 25 | 359 | 18 | 5 | 40
17 | CCc1cc(Nc2ncc(Cl)c(Nc3ccc4nccnc4c3N(C)S(C)(=O)=O)n2)c(OC)cc1N1CC2CCC1CN2C(C)C (stereo not drawn) [Example B28, N—N-(6-((5-chloro-2-((5-ethyl-4-(5-isopropyl-2,5-diazabicyclo[2.2.2]octan-2-yl)-2-methoxyphenyl)amino)pyrimidin-4-yl)amino)quinoxalin-5-yl)-N-methylmethanesulfonamide] | 26 | 23 | 332 | 14 | 5 | 50
18 | CCc1cc(Nc2ncc(Br)c(Nc3ccc4nccnc4c3N(C)S(C)(=O)=O)n2)c(OC)cc1N1CC2(C1)CN(C(C)C)C2 [Example B29, N-(6-((5-bromo-2-((5-ethyl-4-(6-isopropyl-2,6-diazaspiro[3.3]heptan-2-yl)-2-methoxyphenyl)amino)pyrimidin-4-yl)amino)quinoxalin-5-yl)-N-methylmethanesulfonamide] | 27 | 9 | 317 | 14 | 2 | 68
